“And” between values parts separate entries of the source, which are not always exact repeats. Equal values may be shown once. Inconclusive results and toxic doses are left out.
Test system: P388 leukemia ip, CD2F1 mice, survival T/C
Assay: NCI In Vivo Anticancer Drug Screen. Data for tumor model P388 Leukemia (intraperitoneal) in CD2F1 (CDF1) mice
Details: endpoint: median survival time, higher = longer survival
In short: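 Mice carrying the transplanted tumor received test compound or vehicle. Survival was recorded in each group, and the value is the treated-group measurement divided by that of the vehicle-treated control group.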

[1] = dose: 50.0 mg/kg/injection, schedule: Q01DX005 (ip), vehicle: Klucel (hydroxypropylcellulose) (HPC)
[2] = dose: 100.0 mg/kg/injection, schedule: Q01DX005 (ip), vehicle: Klucel (hydroxypropylcellulose) (HPC)
[3] = dose: 200.0 mg/kg/injection, schedule: Q01DX005 (ip), vehicle: Klucel (hydroxypropylcellulose) (HPC)
[4] = dose: 100.0 mg/kg/injection, schedule: Q01DX009 (ip), vehicle: Klucel (hydroxypropylcellulose) (HPC)
[5] = dose: 200.0 mg/kg/injection, schedule: Q01DX009 (ip), vehicle: Klucel (hydroxypropylcellulose) (HPC)
[6] = dose: 60.0 mg/kg/injection, schedule: Q01DX005 (ip), vehicle: saline with Tween-80
[7] = dose: 120.0 mg/kg/injection, schedule: Q01DX005 (ip), vehicle: saline with Tween-80
[8] = dose: 240.0 mg/kg/injection, schedule: Q01DX005 (ip), vehicle: saline with Tween-80
[9] = dose: 60.0 mg/kg/injection, schedule: Q01DX005 (ip), vehicle: Klucel (hydroxypropylcellulose) (HPC)
[10] = dose: 120.0 mg/kg/injection, schedule: Q01DX005 (ip), vehicle: Klucel (hydroxypropylcellulose) (HPC)
[11] = dose: 240.0 mg/kg/injection, schedule: Q01DX005 (ip), vehicle: Klucel (hydroxypropylcellulose) (HPC)
[12] = dose: 50.0 mg/kg/injection, schedule: Q01DX009 (ip), vehicle: saline with Tween-80
[13] = dose: 100.0 mg/kg/injection, schedule: Q01DX009 (ip), vehicle: saline with Tween-80

## Nc1[nH]nc2nc(-c3ccc(Cl)cc3)cnc12
dose: 50.0 mg/kg/injection, schedule: Q04DX003 (ip), vehicle: saline with Tween-80
  T/C: 100 % of control
dose: 100.0 mg/kg/injection, schedule: Q04DX003 (ip), vehicle: saline with Tween-80
  T/C: 100 % of control
dose: 200.0 mg/kg/injection, schedule: Q04DX003 (ip), vehicle: saline with Tween-80
  T/C: 100 % of control

## COC(=O)C1CSC(c2c(CO)cnc(C)c2O)N1 (configuration not stated)
dose: 100.0 mg/kg/injection, schedule: Q04DX002 (ip), vehicle: saline + Tween-80 + alcohol
  T/C: 105 % of control
dose: 200.0 mg/kg/injection, schedule: Q04DX002 (ip), vehicle: saline + Tween-80 + alcohol
  T/C: 96 % of control
dose: 400.0 mg/kg/injection, schedule: Q04DX002 (ip), vehicle: saline + Tween-80 + alcohol
  T/C: 107 % of control

## CC(C)CC1NC(=O)C(CC(C)C)N(CO)C1=O (configuration not stated)
[1]
  T/C: 97 % of control
[2]
  T/C: 99 % of control
[3]
  T/C: 95 % of control

## O=c1oc(-c2ccccc2O)ns1
[4]
  T/C: 98 % of control
[5]
  T/C: 102 % of control
dose: 400.0 mg/kg/injection, schedule: Q01DX009 (ip), vehicle: Klucel (hydroxypropylcellulose) (HPC)
  T/C: 97 % of control

## O=C(O)/C=C/c1c[nH]c(=O)[nH]c1=O
[6]
  T/C: 107 % of control
[7]
  T/C: 100 % of control
[8]
  T/C: 89 % of control

## COC(=O)c1ccc(O)cc1C1(Cl)CC1
[9]
  T/C: 108 % of control
[10]
  T/C: 102 % of control
[11]
  T/C: 100 % of control

## CCCCCCCCCCCCCCCCSc1ccc(N=Cc2ccc(N(CC)CC#N)cc2)cc1
[12]
  T/C: 97 % of control
[13]
  T/C: 94 % of control

## CN(C)c1ccc(/C=N/NC(=O)c2ccccc2NC(=O)c2ccccc2Cl)cc1
dose: 7.5 mg/kg/injection, schedule: Q01DX005 (ip), vehicle: Klucel (hydroxypropylcellulose) (HPC)
  T/C: 86 % of control
dose: 15.0 mg/kg/injection, schedule: Q01DX005 (ip), vehicle: Klucel (hydroxypropylcellulose) (HPC)
  T/C: 86 % of control

## COc1cccc2c1C(=O)c1c(O)c3c(c(O)c1C2=O)CC(O)(C(C)=O)CC3OC1CC(N)C(O)C(C)O1 (configuration not stated)
dose: 0.63 mg/kg/injection, schedule: Q01DX009 (ip), vehicle: water
  T/C: 150 % of control and 163 % of control
dose: 1.25 mg/kg/injection, schedule: Q01DX009 (ip), vehicle: water
  T/C: 158 % of control [middle of 7 runs]
dose: 1.5 mg/kg/injection, schedule: Q01DX009 (ip), vehicle: water
  T/C: 103 % of control
dose: 2.5 mg/kg/injection, schedule: Q01DX009 (ip), vehicle: water
  T/C: 160 % of control [middle of 16 runs]
dose: 2.9 mg/kg/injection, schedule: Q01DX009 (ip), vehicle: saline
  T/C: 102 % of control
dose: 3.0 mg/kg/injection, schedule: Q01DX009 (ip), vehicle: water
  T/C: 110 % of control
dose: 3.13 mg/kg/injection, schedule: Q01DX009 (ip), vehicle: water
  T/C: 155 % of control
dose: 5.0 mg/kg/injection, schedule: Q01DX009 (ip), vehicle: water
  T/C: 167 % of control [middle of 17 runs]
dose: 6.0 mg/kg/injection, schedule: Q01DX009 (ip), vehicle: water
  T/C: 110 % of control
dose: 6.25 mg/kg/injection, schedule: Q01DX009 (ip), vehicle: water
  T/C: 171 % of control
dose: 8.0 mg/kg/injection, schedule: Q04DX003 (ip), vehicle: water
  T/C: 114 % of control
dose: 10.0 mg/kg/injection, schedule: Q01DX009 (ip), vehicle: water
  T/C: 178 % of control [middle of 14 runs]
dose: 11.0 mg/kg/injection, schedule: Q04DX003 (ip), vehicle: water
  T/C: 103 % of control and 109 % of control
dose: 12.0 mg/kg/injection, schedule: Q01DX009 (ip), vehicle: water
  T/C: 116 % of control
dose: 12.5 mg/kg/injection, schedule: Q01DX009 (ip), vehicle: water
  T/C: 174 % of control
dose: 15.0 mg/kg/injection, schedule: Q04DX003 (ip), vehicle: water
  T/C: 121 % of control
dose: 16.0 mg/kg/injection, schedule: Q04DX003 (ip), vehicle: water
  T/C: 110 % of control and 122 % of control
dose: 20.0 mg/kg/injection, schedule: Q01DX009 (ip), vehicle: other
  T/C: 155 % of control
dose: 21.9 mg/kg/injection, schedule: Q04DX003 (ip), vehicle: water
  T/C: 97 % of control and 118 % of control
dose: 23.4 mg/kg/injection, schedule: Q01DX009 (ip), vehicle: saline
  T/C: 188 % of control
dose: 24.0 mg/kg/injection, schedule: Q01DX009 (ip), vehicle: water
  T/C: 108 % of control
dose: 25.0 mg/kg/injection, schedule: Q01DX009 (ip), vehicle: water
  T/C: 197 % of control
dose: 40.0 mg/kg/injection, schedule: Q01DX009 (ip), vehicle: water
  T/C: 104 % of control
dose: 43.8 mg/kg/injection, schedule: Q04DX003 (ip), vehicle: water
  T/C: 106 % of control
dose: 64.0 mg/kg/injection, schedule: Q04DX003 (ip), vehicle: water
  T/C: 110 % of control
dose: 87.5 mg/kg/injection, schedule: Q04DX003 (ip), vehicle: water
  T/C: 157 % of control
dose: 88.0 mg/kg/injection, schedule: Q04DX003 (ip), vehicle: water
  T/C: 182 % of control
dose: 120.0 mg/kg/injection, schedule: Q04DX003 (ip), vehicle: water
  T/C: 160 % of control
dose: 128.0 mg/kg/injection, schedule: Q04DX003 (ip), vehicle: water
  T/C: 168 % of control and 172 % of control
dose: 175.0 mg/kg/injection, schedule: Q04DX003 (ip), vehicle: water
  T/C: 182 % of control
dose: 240.0 mg/kg/injection, schedule: Q04DX003 (ip), vehicle: water
  T/C: 101 % of control
dose: 256.0 mg/kg/injection, schedule: Q04DX003 (ip), vehicle: water
  T/C: 177 % of control
dose: 350.0 mg/kg/injection, schedule: Q04DX003 (ip), vehicle: water
  T/C: 97 % of control

## COC1=CC2(CCN(C)C(=O)C(F)(F)F)C(=CC1=O)CCc1ccc(OC)c(O)c12 (configuration not stated)
dose: 100.0 mg/kg/injection, schedule: Q04DX002 (ip), vehicle: saline with Tween-80
  T/C: 101 % of control
dose: 200.0 mg/kg/injection, schedule: Q04DX002 (ip), vehicle: saline with Tween-80
  T/C: 100 % of control
dose: 400.0 mg/kg/injection, schedule: Q04DX002 (ip), vehicle: saline with Tween-80
  T/C: 93 % of control

## S=C(SCc1cc(Cl)cc2c1OCOC2)N1CCSCC1
[6]
  T/C: 105 % of control
[7]
  T/C: 92 % of control
[8]
  T/C: 92 % of control

## COC(c1nc(N)no1)c1c(Cl)cccc1Cl (configuration not stated)
[1]
  T/C: 97 % of control
[2]
  T/C: 91 % of control
[3]
  T/C: 92 % of control

## CCCC[n+]1c(/C=C\c2c(OC)cc(OC)cc2OC)ccc2ccccc21
dose: 0.19 mg/kg/injection, schedule: Q01DX009 (ip), vehicle: Klucel (hydroxypropylcellulose) (HPC)
  T/C: 115 % of control
dose: 0.39 mg/kg/injection, schedule: Q01DX009 (ip), vehicle: Klucel (hydroxypropylcellulose) (HPC)
  T/C: 115 % of control and 122 % of control
dose: 0.78 mg/kg/injection, schedule: Q01DX009 (ip), vehicle: Klucel (hydroxypropylcellulose) (HPC)
  T/C: 105 % of control

## O=[N+]([O-])c1ccc(NCc2ccccc2)nc1
[12]
  T/C: 107 % of control
[13]
  T/C: 117 % of control
dose: 200.0 mg/kg/injection, schedule: Q01DX009 (ip), vehicle: saline with Tween-80
  T/C: 112 % of control

## CC(CCO)CCC(Br)C(C)(C)Br (configuration not stated)
dose: 50.0 mg/kg/injection, schedule: Q01DX005 (ip), vehicle: saline
  T/C: 103 % of control
dose: 100.0 mg/kg/injection, schedule: Q01DX005 (ip), vehicle: saline
  T/C: 105 % of control
dose: 200.0 mg/kg/injection, schedule: Q01DX005 (ip), vehicle: saline
  T/C: 100 % of control

## Cc1ccccc1C(=O)c1cnc(C)n1Cc1ccccc1
[6]
  T/C: 96 % of control
[7]
  T/C: 98 % of control
[8]
  T/C: 98 % of control

## COc1ccc(C2c3cc4c(cc3OC3(N5CCCC5)CCCC23)OCO4)c(OC)c1 (configuration not stated)
[9]
  T/C: 99 % of control
[10]
  T/C: 95 % of control
[11]
  T/C: 96 % of control

## Cc1c(NC(=S)Nc2ccccc2C(F)(F)F)c(=O)n(-c2ccccc2)n1C
dose: 50.0 mg/kg/injection, schedule: Q01DX009 (ip), vehicle: Klucel (hydroxypropylcellulose) (HPC)
  T/C: 92 % of control
[4]
  T/C: 96 % of control
[5]
  T/C: 100 % of control
